pEC50: −log10 of the molar value.
What follows are compounds tested on mutant HTT protein (mHTT) (assay: Homogeneous Time Resolved Fluorescence (HTRF) assay for HTT lowering in GENEAe020-A cells). Conditions: reduction of mHTT; Huntington patient human cells (GENEAe020-A cell line); 48 hours incubation; mean from three replicates.
Assay type: cell-based
Procedure: The HTRF assay was adapted from Weiss et al. (Analytical Biochemistry Volume 395, Issue 1, 1 Dec. 2009, Pages 8-15 and Analytical Biochemistry Volume 410, 2011, Pages 304-306) to cells from GENEAe020-A cell line (https://hpscreg.eu/cell-line/GENEAe020-A).
Compounds were tested for the effect of mutant HTT levels in Huntington patient human cells (GENEAe020-A cell line) using Homogeneous Time Resolved Fluorescence (HTRF) directed towards mutant HTT protein (mHTT). The GENEAe020-A cell line was derived by Genea Biocells from human blastocysts of HD donors. After assessing viability, cells were plated into 384 well collagen coated plates in growth media. Once cells adhered, media was removed and test compounds dissolved in DMSO were diluted with buffer solution and added to the adherent cells. Controls included experiments with no cells, DMSO with no compound, and Hsp90 inhibitor control. Cells were incubated with compounds and controls for 48 hours. Then, the cells were lysed and transferred to an assay plate containing HTRF labeled monoclonal antibodies developed by Paul Patterson (Ko et al., Brain Research Bulletin, Volume 56, Numbers 3 and 4, 2001, Pages 319-329) which recognize specific areas of the HTT protein. The terbium labeled “donor” antibody (2B7) binds to the N-terminus of the HTT protein and the Alexa488 labeled “acceptor” antibody (MW1) is specific for the polyglutamine region of the protein. Binding of the acceptor labeled antibody is more efficient for the extended polyglutamine repeats of mutant HTT protein which translates into a signal boost which enables the specific measurement of mutant HTT protein level. The HTRF donor and acceptor detection reagents were incubated with the cell lysate and the ratio between the signals of the two fluorophores is indicative of the relative quantities of mHTT.

SMILES	pEC50
Cc1cn2nc(-c3nc4sc([C@H]5CCNC[C@H]5F)cc4c(=O)[nH]3)cc(C)c2n1 (racemic) [Example 2, 2-(2,8-Dimethylimidazo[1,2-b]pyridazin-6-yl)-6-[(3SR,4SR)-3-fluoro-4-piperidyl]-3H-thieno[2,3-d]pyrimidin-4-one]	6.69
Cc1cn2nc(-c3nc4sc(C5CCNCC5)cc4c(=O)[nH]3)cc(C)c2n1 [Example 1, 2-(2,8-Dimethylimidazo[1,2-b]pyridazin-6-yl)-6-(4-piperidyl)-3H-thieno[2,3-d]pyrimidin-4-one hydrogen chloride]	7.30
Cc1cn2nc(-c3nc4sc(C5CCNCC5(F)F)cc4c(=O)[nH]3)cc(C)c2n1 (stereo not drawn) [Example 3, 6-(3,3-Difluoro-4-piperidyl)-2-(2,8-dimethylimidazo[1,2-b]pyridazin-6-yl)-3H-thieno[2,3-d]pyrimidin-4-one]	5.64
Cc1cn2nc(-c3nc4sc(OC5CNC5)cc4c(=O)[nH]3)cc(C)c2n1 [Example 4, 6-(Azetidin-3-yloxy)-2-(2,8-dimethylimidazo[1,2-b]pyridazin-6-yl)-3H-thieno[2,3-d]pyrimidin-4-one]	5.33
Cc1cn2nc(-c3nc4sc(OC5CCNCC5)cc4c(=O)[nH]3)cc(C)c2n1 [Example 5, 2-(2,8-Dimethylimidazo[1,2-b]pyridazin-6-yl)-6-(4-piperidyloxy)-3H-thieno[2,3-d]pyrimidin-4-one]	6.55
Cc1cn2nc(-c3nc4sc(C5CCNC6(CC6)C5)cc4c(=O)[nH]3)cc(C)c2n1 (stereo not drawn) [Example 6, 6-(4-Azaspiro[2.5]octan-7-yl)-2-(2,8-dimethylimidazo[1,2-b]pyridazin-6-yl)-3H-thieno[2,3-d]pyrimidin-4-one]	6.69
